The record followed here is the OligoGym collection.

Several values for one entry are separate records, joined by “and”; a condition that tells them apart may be missing. Identical values can stand only once. After the bases stand the sugars from the 5' end (letter, count) and the backbone: PS all phosphorothioate, else s phosphorothioate and o phosphodiester by linkage. Methylation of C is not given here. e = 2'-O-(2-methoxyethyl) (MOE); k = constrained ethyl (cEt); d = 2'-deoxy (DNA)

The target of the data set is IRF5. The following applies: ASO.

Turning to “CGGTCTTTGAGGTCTG (sugars kkkddddddddkdkdk, PS)”, the target mRNA inhibition (KARPAS-229, 4 µM) stood at 57%.
Under “KARPAS-229, 4 µM”, “ACTGACACAGGCGGAT (sugars kkdddddddddkekek, PS)” registered a target mRNA inhibition of 0%.
As for “ACATCTCCACATCAGT (sugars k3 d9 k3 e1, PS)”, the target mRNA inhibition (KARPAS-229, 4 µM) came out at 11%.
With CAATTTTGCATTCCAT (sugars k3 d10 k3, PS), the target mRNA inhibition (KARPAS-229, 4 µM) was found to be 52%.
Regarding TCTTGTCTAGTGTCAT (sugars k3 d10 k3, PS), under “KARPAS-229, 4 µM”, the target mRNA inhibition worked out at 0%.
Still for that read-out and setting: under “ACCACTGTGTACCCCA (sugars kkddddddddkekekk, PS)” stands 15%; under “CAATGCAACATCCATC (sugars kdddddddddkekeke, PS)”, 0%; under “TCCAATTTTGCATTCC (sugars k3 d9 k3 e1, PS)”, 7%.
In the case of “TTATCTCCGTCCTGGC (sugars kkkddddddddkekek, PS)”, where the note is “KARPAS-229, 4 µM”, the target mRNA inhibition turned out to be 0%.
For “GTTCTTGGACTCTCAA (sugars kddddddddddkekek, PS)”, the target mRNA inhibition (KARPAS-229, 4 µM) was 35%.
On to “GGAAGTGAGTCTCAAA (sugars kkddddddddddkeke, PS)”, for which the target mRNA inhibition runs as follows: (KARPAS-229, 0.44444 µM) 6%; (KARPAS-229, 1.33333 µM) 12%; (KARPAS-229, 4 µM) 55% and 49%; (KARPAS-229, 12 µM) 65%.
Sequence GGTCTGGCCCTTTTGG (sugars k3 d10 k3, PS) had a target mRNA inhibition (KARPAS-229, 4 µM) of 16%.
With “TGAGTCATGGGCTGAG (sugars kkdddddddddkekek, PS)”, the target mRNA inhibition (KARPAS-229, 4 µM) is 0%.
In the case of “CTGATATGATACCTAA (sugars k3 d2 k1 d7 k3, PS)”, the target mRNA inhibition is 18% (A-431, 0.00412 µM); 23% (A-431, 0.01225 µM); 41% (A-431, 0.03704 µM); 63% (A-431, 0.11111 µM); 80% (A-431, 0.33333 µM); 75% (A-431, 1 µM).
“AGGAGTGAGACGAGCA (sugars kkkddddddddkdkdk, PS)”: the target mRNA inhibition (KARPAS-229, 4 µM) stood at 37%.
Consider “ATGGTGTTATCTCCGT (sugars kddddddddddkekek, PS)”, for which the target mRNA inhibition (KARPAS-229, 4 µM) was 0%.
“CATCTCCACATCAGTC (sugars kkddddddddkekekk, PS)” had a target mRNA inhibition (KARPAS-229, 4 µM) of 23%.
Turning to “GGTCTTGACCTCCCGC (sugars k3 d9 k3 e1, PS)”, the target mRNA inhibition (KARPAS-229, 4 µM) came to 22%.
On to “GGTCTTGACCTCCCGC (sugars kekdddddddddeekk, PS)”, for which the target mRNA inhibition (KARPAS-229, 4 µM) amounted to 33%.
Consider “CGGTCTTTGAGGTCTG (sugars kkdddddddddkekek, PS)”, for which, under “KARPAS-229, 4 µM”, the target mRNA inhibition is 44%.
The sequence “TTATTTCTGCTCCAGG (sugars kkddddddddddkeke, PS)” displayed a target mRNA inhibition (KARPAS-229, 4 µM) of 26%.
Still for that read-out and setting: under “GTTCTTGGACTCTCAA (sugars k3 d9 k3 e1, PS)” stands 37%; under “TTGTCTAGTGTCATGG (sugars kkkdddddddddkeke, PS)”, 39%.
With CTGATATGATACCTAA (sugars k3 d10 k3, PS), the target mRNA inhibition worked out at 13% (A-431, 0.00412 µM); 29% (A-431, 0.01225 µM); 54% (A-431, 0.03704 µM); 80% (A-431, 0.11111 µM); 88% (A-431, 0.33333 µM); 90% (A-431, 1 µM). For the same sequence, the target mRNA inhibition is 42% (KARPAS-229, 0.44444 µM); 45% (KARPAS-229, 1.33333 µM); 59% and 76% (KARPAS-229, 4 µM); 77% (KARPAS-229, 12 µM).
Consider “GTGAGTCTCAAACCAG (sugars kkddddddddddkeke, PS)”, for which the target mRNA inhibition (KARPAS-229, 4 µM) is 31%.
Consider “GTTCTTGGACTCTCAA (sugars kkddddddddkekekk, PS)”, for which the target mRNA inhibition (KARPAS-229, 4 µM) came to 0%.
The sequence “GCTGTCACATCTCCAC (sugars k3 d9 k3 e1, PS)” displayed a target mRNA inhibition (KARPAS-229, 4 µM) of 23%.
On the same count and under the same terms, under “AGGAAGTGAGTCTCAA (sugars kddddddddddkekek, PS)” stands 11%; under “TGCACTGACACAGGCG (sugars k2 d8 e4 k2, PS)”, 0%.
In turn, “TCTTGACCTCCCGCTG (sugars kkddddddddkekekk, PS)” came in with a target mRNA inhibition (KARPAS-229, 4 µM) of 19%.
With “AGCTTGGTCTTGACCT (sugars kddddddddddkekek, PS)”, the target mRNA inhibition (KARPAS-229, 4 µM) amounted to 0%.
For the sequence “TCCAATTTTGCATTCC (sugars kekdddddddddeekk, PS)”, the target mRNA inhibition reads like this: (KARPAS-229, 0.44444 µM) 42%; (KARPAS-229, 1.33333 µM) 68%; (KARPAS-229, 4 µM) 78% and 76%; (KARPAS-229, 12 µM) 82%.
Consider “CCTTCTGCAGGGAGTC (sugars kkkddddddddkekek, PS)”, for which the target mRNA inhibition (KARPAS-229, 4 µM) is 0%.
In the case of “TCACCACTGTGTACCC (sugars kkddddddddddkeke, PS)”, the target mRNA inhibition (KARPAS-229, 4 µM) amounted to 0%.
Consider “TGCACTGACACAGGCG (sugars kkddddddddkekekk, PS)”, for which the target mRNA inhibition (KARPAS-229, 4 µM) turned out to be 0%.
